Reference: ChEMBL document CHEMBL5724696, “Autophagy assay results for EUbOPEN Chemogenomics Library” (2024)
Several values for one entry are separate records, joined by “and”; a condition that tells them apart may be missing. Equal values may be shown once.

What was measured:
Assay type in all cases: functional, Homo sapiens
[1] = test system: TERT-RPE1; test: (§1) Here: values are normalized to the negative (DMSO; defined as 0% autophagy induction) and positive (250nM Torin1; mTOR inhibitor; defined as maximal inducer of autophagy = 100%) control compounds and represented as % of autophagy induction. […] The impact of autophagy induction on cells is complex and depends on the affected target. As such, the magnitude of a phenotype may not be equally mirrored in the %-value of autophagy induction and vice versa. The dynamics of the induction may indicate the mode of activation: e.g. activation via phosphorylation or a signaling cascade may occur fast, while activation via transcription factors may take considerably longer. […] Of note, treatment concentrations may be sub-optimal for specific compounds, leading to false negative annotations.; settings: Culturing Media DMEM/F12 (1:1), 1 % Penicillin/Streptomycin, 10% Fetal bovin serum Add-On: No, Screening Media Control DMEM/F12 (1:1), Screening Media Samples DMEM/F12 (1:1)
[2] = test system: U2OS; test: as §1; settings: Culturing Media DMEM, 1 % Penicillin/Streptomycin, 10% Fetal bovin serum Add-On: No, Screening Media Control DMEM, Screening Media Samples DMEM
[3] = test system: U2OS; test: as §1; settings: Culturing Media DMEM, 1 % Penicillin/Streptomycin, 10% Fetal bovin serum Add-On: No, Screening Media Control DMEM, Screening Media Samples DMEM; remark: listed apart in the source
[4] = Compound Concentration 0.5 uM, Timepoint 12 hours
[5] = Compound Concentration 0.5 uM, Timepoint 24 hours
[6] = Compound Concentration 0.5 uM, Timepoint 36 hours
[7] = Compound Concentration 0.5 uM, Timepoint 60 hours
[8] = Compound Concentration 2 uM, Timepoint 12 hours
[9] = Compound Concentration 2 uM, Timepoint 24 hours
[10] = Compound Concentration 2 uM, Timepoint 36 hours
[11] = Compound Concentration 2 uM, Timepoint 60 hours
[12] = Compound Concentration 10 uM, Timepoint 12 hours
[13] = Compound Concentration 10 uM, Timepoint 24 hours
[14] = Compound Concentration 10 uM, Timepoint 36 hours
[15] = Compound Concentration 10 uM, Timepoint 60 hours

In the case of `Cc1c(F)cccc1NC(=O)Nc1ccc(Cl)c(S(=O)(=O)[C@H]2CCCNC2)c1O` [DANIRIXIN], the autophagy induction ([1]; Compound Concentration 0.5 uM, Timepoint 12 hours, 12 h, 0.5 µM) is reported as -1.988% and 1.2715%, the autophagy induction ([1]; Compound Concentration 0.5 uM, Timepoint 24 hours, 24 h, 0.5 µM) is reported as -2.9066% and -1.048% and the autophagy induction ([1]; Compound Concentration 0.5 uM, Timepoint 36 hours, 36 h, 0.5 µM) is reported as -6.399% and -2.355%. The autophagy induction ([1]; Compound Concentration 0.5 uM, Timepoint 60 hours, 60 h, 0.5 µM) was -5.802% and -6.526%, the autophagy induction ([1]; Compound Concentration 2 uM, Timepoint 12 hours, 12 h, 2 µM) was -2.5% and 0.287% and the autophagy induction ([1]; Compound Concentration 2 uM, Timepoint 24 hours, 24 h, 2 µM) was -3.213% and -0.8718%. The autophagy induction ([1]; Compound Concentration 2 uM, Timepoint 36 hours, 36 h, 2 µM) was -5.9285% and 0.3135%, the autophagy induction ([1]; Compound Concentration 2 uM, Timepoint 60 hours, 60 h, 2 µM) was -6.839% and -1.623% and the autophagy induction ([1]; Compound Concentration 10 uM, Timepoint 12 hours, 12 h, 10 µM) was 1.595% and 0.8887%. For the same compound, the autophagy induction ([1]; Compound Concentration 10 uM, Timepoint 24 hours, 24 h, 10 µM) was 3.736% and 2.2115%, the autophagy induction ([1]; Compound Concentration 10 uM, Timepoint 36 hours, 36 h, 10 µM) was 4.117% and 5.758% and the autophagy induction ([1]; Compound Concentration 10 uM, Timepoint 60 hours, 60 h, 10 µM) was 6.176% and 5.1403%. The autophagy induction [2, 4] was 3.972%, the autophagy induction [2, 5] was -2.873% and the autophagy induction [2, 6] was -59.8201%. It also gave an autophagy induction [2, 7] of -1.181%, an autophagy induction [2, 8] of -1.664% and an autophagy induction [2, 9] of -3.195%. The autophagy induction [2, 10] was -60.7356%, the autophagy induction [2, 11] was -1.731% and the autophagy induction [2, 12] was -5.705%. The autophagy induction [2, 13] was -2.005%, the autophagy induction [2, 14] was -60.1624% and the autophagy induction [2, 15] was -1.218%. For the same compound, the autophagy induction [3, 4] was -10.8402%, the autophagy induction [3, 5] was -17.1359% and the autophagy induction [3, 6] was -12.7926%. It also gave an autophagy induction [3, 7] of -5.9905%, an autophagy induction [3, 8] of -6.206% and an autophagy induction [3, 9] of -10.5833%. It also gave an autophagy induction [3, 10] of -10.8283%, an autophagy induction [3, 11] of -13.8786% and an autophagy induction [3, 12] of -11.164%. It also gave an autophagy induction [3, 13] of -5.925%, an autophagy induction [3, 14] of -8.152% and an autophagy induction [3, 15] of -8.851%.
